system: not listed separately; assay: Analgesia (Table I); format: in vivo; conditions: not given

SMILES	ANALGESIA % Inhibition @ 30mg/kg body weight [%]
CS(=O)(=O)c1ccc(-n2cccc2-c2ccc(F)cc2)cc1 [Example 8, 2-(4-Fluorophenyl)--1-[4-(methylsulfonyl)phenyl]-1H-pyrrole]	47

system: COX-1; assay: Assay for COX-1 activity in vitro (PGE2 formed, ELISA); format: biochemical, human or murine; conditions: recombinant COX-1 from SF9 insect cells, arachidonic acid 10 μM, pH 8.0, 10-20 min pre-incubation
Experimental: The COX-2 inhibition activity of the compounds of this invention illustrated in the Examples was determined by the following methods.
a. Preparation of recombinant COX baculoviruses
Recombinant baculoviruses were isolated by transfecting 4 μg of baculovirus transfer vector DNA into SF9 insect cells (2×10^8) along with 200 ng of linearized baculovirus plasmid DNA by the calcium phosphate method. See M. D. Summers and G. E. Smith, A Manual of Methods for Baculovirus Vectors and Insect Cell Culture Procedures, Texas Agric. Exp. Station Bull. […] Recombinant viruses were purified by three rounds of plaque purification and high titer (10^7-10^8 pfu/mL) stocks of virus were prepared. For large scale production, SF9 insect cells were infected in 10 liter fermentors (0.5×10^6 /mL) with the recombinant baculovirus stock such that the multiplicity of infection was 0.1. […] The homogenate was centrifuged at 10,000×G for 30 minutes, and the resultant supernatant was stored at -80° C. before being assayed for COX activity.
COX activity was assayed as PGE2 formed/pg protein/time using an ELISA to detect the prostaglandin released. CHAPS-solubilized insect cell membranes containing the appropriate COX enzyme were incubated in a potassium phosphate buffer (50 mM, pH 8.0) containing epinephrine, phenol, and heme with the addition of arachidonic acid (10 μM). […] The PGE2 formed was measured by standard ELISA technology (Cayman Chemical).

SMILES	IC50 [µM]
Cc1c(COc2ccc(Cl)cc2)cc(-c2ccc(S(C)(=O)=O)cc2)n1-c1ccc(F)cc1 [Example 26, 3-[(4-Chlorophenoxy)methyl]-1-(4-fluorophenyl)-2-methyl-5-[4-(methylsulfonyl)phenyl]-1H-pyrrole]	> 100
NS(=O)(=O)c1ccc(-n2cccc2-c2ccc(F)cc2)cc1 [Example 9, 4-[2-(4-Fluorophenyl)-1H-pyrrol-1-yl]benzenesulfonamide]	10.4
Cc1ccc(-c2ccc(S(C)(=O)=O)cc2)n1-c1ccc(F)cc1 [Example 1, 1-(4-Fluorophenyl)-2-methyl-5-[4-(methylsulfonyl)phenyl]-1H-pyrrole]	> 100
Cc1ccc(-c2ccc(S(C)(=O)=O)cc2)n1C1CCCCC1 [Example 7, 1-Cyclohexyl-2-methyl-5-[4-(methylsulfonyl)phenyl]-1H-pyrrole]	62.4
Cc1c(COc2cccc(Cl)c2)cc(-c2ccc(S(C)(=O)=O)cc2)n1-c1ccc(F)cc1 [Example 25, 3-[(3-Chlorophenoxy)methyl]-1-(4-fluorophenyl)-2-methyl-5-[4-(methylsulfonyl)phenyl]-1H-pyrrole]	> 100
CS(=O)(=O)c1ccc(-c2cccn2-c2ccc(F)cc2)cc1 [Example 10, 1-(4-Fluorophenyl)-2-[4-(methylsulfonyl)phenyl]-1H-pyrrole]	> 100
Cc1c(S(=O)(=O)C(F)(F)F)cc(-c2ccc(S(C)(=O)=O)cc2)n1-c1ccc(F)cc1 [Example 16, 1-(4-Fluorophenyl)-2-methyl-5-[4-(methylsulfonyl)phenyl]-3-[(trifluoromethyl)sulfonyl]-1H-pyrrole]	> 100

system: rat paw edema; assay: Rat Carrageenan Foot Pad Edema Test; format: in vivo, rat (Male Sprague-Dawley); conditions: oral, 3 h after carrageenan injection
Experimental: The carrageenan foot edema test was performed with materials, reagents and procedures essentially as described by Winter, et al., (Proc. Soc. Exp. Biol. Med., 111, 544 (1962)). Male Sprague-Dawley rats were selected in each group so that the average body weight was as close as possible. Rats were fasted with free access to water for over sixteen hours prior to the test. The rats were dosed orally (1 mL) with compounds suspended in vehicle containing 0.5% methylcellulose and 0.025% surfactant, or with vehicle alone. One hour later a subplantar injection of 0.1 mL of 1% solution of carrageenan/sterile 0.9% saline was administered and the volume of the injected foot was measured with a displacement plethysmometer connected to a pressure transducer with a digital indicator. Three hours after the injection of the carrageenan, the volume of the foot was again measured. The average foot swelling in a group of drug-treated animals was compared with that of a group of placebo-treated animals and the percentage inhibition of edema was determined (Otterness and Bliven, Laboratory Models for Testing NSAIDs, in Non-steroidal Anti-Inflammatory Drugs, (J. Lombardino, ed. 1985)).

SMILES	RAT PAW EDEMA % Inhibition @ 30mg/kg body weight [%]
CS(=O)(=O)c1ccc(-n2cccc2-c2ccc(F)cc2)cc1 [Example 8, 2-(4-Fluorophenyl)--1-[4-(methylsulfonyl)phenyl]-1H-pyrrole]	56
